According to patent US20040086942A1, “Ige receptor antagonists” (priority 2003, published 2004):
Where a SMILES comes first, the peptide text is derived from it. Bridges are numbered along the chain shown (N, C = ends). [ ]: non-standard residue; d: D form. NMeA = CN[C@@H](C)C(=O)O; Sar = CNCC(=O)O

molecular target: T1, alpha subunit of the human FcεRI receptor (Homo sapiens, UniProt P12319); test: cell-based 125I-IgE binding inhibition assay on CHO FcεRI+ cells; settings: not given
T1 construct: expressed in transfected cells; host or cells: Chinese hamster ovary (CHO FcεRI+) cells
T1 sequence (P12319 26-257): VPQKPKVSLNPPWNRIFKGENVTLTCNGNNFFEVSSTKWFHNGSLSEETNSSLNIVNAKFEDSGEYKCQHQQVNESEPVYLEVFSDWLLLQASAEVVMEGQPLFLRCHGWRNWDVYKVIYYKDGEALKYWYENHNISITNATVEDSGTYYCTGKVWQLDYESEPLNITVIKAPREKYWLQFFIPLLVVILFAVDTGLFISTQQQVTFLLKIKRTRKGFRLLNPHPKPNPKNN
Procedure: . The following day the cells were rinsed three times with PBS and then once with F12/DMEM. Peptide stocks were reconstituted in 100 mM Hepes buffered water, pH 7.2, at a concentration of 5 mg/mL. Working concentrations of the peptide were diluted in assay buffer (see below). 75 ul, of a desired concentration of peptide was added to the top row of a separate 96 well microtiter plate and serially diluted 1:3 in 50 uL of the assay buffer (F12/DMEM, 1% BSA, 0.05% NaN3 and […] Hepes pH 7.2). Starting concentrations ranged from 50-500 uM. Next, 50 uL of the diluted peptide was transferred to the 96 microtiter well plate containing a monolayer of CHO FcεRI+ cells. After a 1 hour incubation at room temperature, 50 uL of ^125I-IgE (1.5 nM) was added to each well and incubated for an additional 45-60 minutes at 4° C. followed by 5 washes with 200 uL of assay buffer. Cells were solubilized with 200 uL of 1 N NaOH and transferred to a 96 microtiter tube for counting in a gamma counter to determine counts bound. The data were plotted using KaleidaGraph 3.0 and fitted using 4-parameter fits. IC50 values were determined for each peptide.
Six peptides based on selected clones from library #516 were synthesized and assayed for the ability to inhibit the binding of ^125I-IgE to a Chinese hamster ovary cell line expressing the alpha subunit of the IgE high affinity receptor, FcεRI. The peptides were synthesized as nine residue monomers and oxidized to allow the formation of a disulfide bridge resulting in a cyclic peptide. The size of each peptide was confirmed by mass spectrometry.

Row | inhibiting 125I-IgE binding to cell surface expressed FcεRI (in words) | Compound
1 | not active | CC(C)C[C@H](NC(=O)[C@H](C)N)C(=O)N[C@H]1CSSC[C@@H](C(=O)N[C@@H](Cc2ccc(O)cc2)C(=O)N[C@H](C(N)=O)C(C)C)NC(=O)[C@H](C(C)C)NC(=O)[C@H](CCC(=O)O)NC(=O)[C@@H]2CCCN2C1=O [IGE035, ALCPEVCYV-nh2] (H-ALCPEVCYV-NH2; disulfide 3-7)

same assay, conditions: IgE-inhibition activity of synthetic peptides; read-out: Inhibition activity: C+hd 50 +l (uM) ± s.d.

Row | IC50 | Compound
2 | > 500 µM | CC(C)C[C@H](NC(=O)[C@H](C)N)C(=O)N[C@H]1CSSC[C@@H](C(=O)N[C@@H](Cc2ccc(O)cc2)C(=O)N[C@H](C(N)=O)C(C)C)NC(=O)[C@H](C(C)C)NC(=O)[C@H](CCC(=O)O)NC(=O)[C@@H]2CCCN2C1=O [IGE035, ALCPEVCYV-nh2] (H-ALCPEVCYV-NH2; disulfide 3-7)

system: not listed separately; test: 2D NMR structural score versus reference peptide; type: physicochemical; set-up: key to Struct. Score: +++ indicates the peptide is structured similarly to IGE063 (SEQ ID NO:49); + indicates the peptide is structured similarly to IGE063 (SEQ ID NO:49), but is less stable; −/+ indicates the peptide has some elements of stable structure, but the conformation differs from the reference structure (e.g., a different turn type is evident); − indicates the peptide is predominantly unstructured in aqueous solution; key to Structure Score: +++, peptide structurally similar to reference; +, structurally similar to reference but significantly less stable; +/−, peptide has some elements of stable structure, but the conformation differs from the reference structure; −, peptide is predominantly unstructured; *peptide IGE037 (SEQ ID NO:128) was initially unstructured (monomeric form), but became structured after spontaneous dimer formation; settings: reference IGE063
Procedure: Peptides were evaluated by 2D NMR spectroscopy to assess the effect of substitutions on the three-dimensional structure of the peptide analog. All peptides with a structural score indicated in Table 5 were analyzed by 2D NMR spectroscopy; backbone ^1H resonances were assigned and ^3JHN-Hα coupling constants were measured and compared to the reference peptide (IGE063, SEQ ID NO:49; see Example 5). Peptides are defined to be of similar structure to the reference peptide provided chemical shifts, coupling constants, and NOEs are consistent with that structure.
A structural score was assigned to peptides analyzed by 2D NMR spectroscopy. For each of these peptides, backbone ^1H resonances have been assigned, and the ^3JHN-Ha coupling constants have been measured and compared to the reference peptide (i.e., IGE134 (SEQ ID NOS:155, 171)). Peptides are defined to be of similar structure to the reference peptide provided. chemical shifts, coupling constants, and NOEs are consistent with that structure.

Row | Struct. Score | Compound
3 | +++ | CSCC[C@H](NC(=O)[C@@H]1CSSC[C@H](NC(=O)[C@H](CCCNC(=N)N)NC(=O)[C@@H]2CCCN2C(=O)[C@H](CC(C)C)NC(=O)[C@H](CC(N)=O)NC(C)=O)C(=O)N[C@@H]([C@@H](C)O)C(=O)N[C@@H](CCC(=O)O)C(=O)NCC(=O)N2CCC[C@H]2C(=O)N[C@@H](Cc2c[nH]c3ccccc23)C(=O)NCC(=O)N[C@@H](CC(C)C)C(=O)N[C@@H](C(C)C)C(=O)N1)C(=O)O [IGE109, Ac-NLPRCTEGPWGLVCM] (Ac-NLPRCTEGPWGLVCM-OH; disulfide 5-14; C-terminus assumed)
4 | +++ | Ac-NLPRCTEG(hyP)WGWVCM [IGE101]
5 | −/+ | CSCC[C@H](NC(=O)[C@@H]1CSSC[C@H](NC(=O)[C@H](CCCNC(=N)N)NC(=O)[C@@H]2CCCN2C(=O)[C@H](CC(C)C)NC(=O)[C@H](CC(N)=O)NC(C)=O)C(=O)N[C@@H]([C@@H](C)O)C(=O)N[C@@H](CCC(=O)O)C(=O)NCC(=O)N(C)CC(=O)N[C@@H](Cc2c[nH]c3ccccc23)C(=O)NCC(=O)N[C@@H](Cc2c[nH]c3ccccc23)C(=O)N[C@@H](C(C)C)C(=O)N1)C(=O)O [IGE097, Ac-NLPRCTEG(N-Me-G)WGWVCM] (Ac-NLPRCTEG[Sar]WGWVCM-OH; disulfide 5-14; C-terminus assumed)
6 | +++ | CSCC[C@H](NC(=O)[C@@H]1CSSC[C@H](NC(=O)[C@H](CCCNC(=N)N)NC(=O)[C@@H]2CCCN2C(=O)[C@H](CC(C)C)NC(=O)[C@H](CC(N)=O)NC(C)=O)C(=O)N[C@@H]([C@@H](C)O)C(=O)N[C@@H](CCC(=O)O)C(=O)NCC(=O)N2CCC[C@H]2C(=O)N[C@@H](Cc2c[nH]c3ccccc23)C(=O)N[C@H](C)C(=O)N[C@@H](Cc2c[nH]c3ccccc23)C(=O)N[C@@H](C(C)C)C(=O)N1)C(=O)O [IGE105, Ac-NLPRCTEGPWaWVCM] (Ac-NLPRCTEGPW[dA]WVCM-OH; disulfide 5-14; C-terminus assumed)
7 | +++ | CSCC[C@H](NC(=O)[C@@H]1CSSC[C@H](NC(=O)[C@H](CCCNC(=N)N)NC(=O)[C@@H]2CCCN2C(=O)[C@H](CC(C)C)NC(=O)[C@H](CC(N)=O)NC(C)=O)C(=O)N[C@@H]([C@@H](C)O)C(=O)N[C@@H](CCC(=O)O)C(=O)NCC(=O)N(C)[C@@H](C)C(=O)N[C@@H](Cc2c[nH]c3ccccc23)C(=O)NCC(=O)N[C@@H](Cc2c[nH]c3ccccc23)C(=O)N[C@@H](C(C)C)C(=O)N1)C(=O)O [IGE096, Ac-NLPRCTEG(N-Me-A)WGWVCM] (Ac-NLPRCTEG[NMeA]WGWVCM-OH; disulfide 5-14; C-terminus assumed)
8 | + | CSCC[C@H](NC(=O)[C@@H]1CSSC[C@H](NC(=O)[C@@H]2CCCN2C(=O)[C@H](CC(C)C)NC(=O)[C@H](CC(N)=O)NC(C)=O)C(=O)N[C@@H]([C@@H](C)O)C(=O)N[C@@H](CCC(=O)O)C(=O)NCC(=O)N2CCC[C@H]2C(=O)N[C@@H](Cc2c[nH]c3ccccc23)C(=O)NCC(=O)N[C@@H](Cc2c[nH]c3ccccc23)C(=O)N[C@@H](C(C)C)C(=O)N1)C(=O)O [IGE107, Ac-NLPCTEGPWGWVCM] (Ac-NLPCTEGPWGWVCM-OH; disulfide 4-13)
9 | +++ | CC(C)C[C@H](NC(=O)[C@@H](N)CC(N)=O)C(=O)N1CCC[C@H]1C(=O)N[C@@H](CCCNC(=N)N)C(=O)N[C@H]1CSSC[C@@H](C(N)=O)NC(=O)[C@H](C(C)C)NC(=O)[C@H](Cc2c[nH]c3ccccc23)NC(=O)CNC(=O)[C@H](Cc2c[nH]c3ccccc23)NC(=O)[C@@H]2CCCN2C(=O)CNC(=O)[C@H](CCC(=O)O)NC(=O)[C@H]([C@@H](C)O)NC1=O [IGE091, NLPRCTEGPWGWVC-nh2] (H-NLPRCTEGPWGWVC-NH2; disulfide 5-14)

Continued, compound first:

Row | Compound | Struct. Score
10 | CSCC[C@H](NC(=O)[C@@H]1CSSC[C@H](NC(=O)[C@H](CCCNC(=N)N)NC(=O)[C@@H]2CCCN2C(=O)[C@H](CC(C)C)NC(=O)[C@H](CC(N)=O)NC(C)=O)C(=O)N[C@@H]([C@@H](C)O)C(=O)N[C@@H](CCC(=O)O)C(=O)NCC(=O)N2CCC[C@H]2C(=O)N[C@@H](CCCCN)C(=O)NCC(=O)N[C@@H](Cc2c[nH]c3ccccc23)C(=O)N[C@@H](C(C)C)C(=O)N1)C(=O)N[C@@H](C)C(=O)N[C@@H](CC(=O)O)C(=O)N[C@@H](CC(=O)O)C(N)=O [IGE032, Ac-NLPRCTEGPKGWVCMADD-nh2] (Ac-NLPRCTEGPKGWVCMADD-NH2; disulfide 5-14) | +++
11 | CSCC[C@H](NC(=O)[C@@H]1CSSC[C@H](NC(=O)[C@H](CCCNC(=N)N)NC(=O)[C@@H]2CCCN2C(=O)[C@H](CC(C)C)NC(=O)[C@@H](N)CC(N)=O)C(=O)N[C@@H]([C@@H](C)O)C(=O)N[C@@H](CCC(=O)O)C(=O)NCC(=O)N2CCC[C@H]2C(=O)N[C@@H](C)C(=O)NCC(=O)N[C@@H](Cc2c[nH]c3ccccc23)C(=O)N[C@@H](C(C)C)C(=O)N1)C(=O)O [IGE072, NLPRCTEGPAGWVCM] (H-NLPRCTEGPAGWVCM-OH; disulfide 5-14; N-terminus and C-terminus assumed) | +++
12 | CSCC[C@H](NC(=O)[C@@H]1CSSC[C@H](NC(=O)[C@H](CCCNC(=N)N)NC(=O)[C@@H]2CCCN2C(=O)[C@H](CC(C)C)NC(=O)[C@@H](N)CC(N)=O)C(=O)N[C@@H]([C@@H](C)O)C(=O)N[C@@H](CCC(=O)O)C(=O)NCC(=O)N2CCC[C@@H]2C(=O)N[C@@H](Cc2c[nH]c3ccccc23)C(=O)NCC(=O)N[C@@H](Cc2c[nH]c3ccccc23)C(=O)N[C@@H](C(C)C)C(=O)N1)C(=O)O [IGE071, NLPRCTEGpWGWVCM] (H-NLPRCTEG[dP]WGWVCM-OH; disulfide 5-14; N-terminus and C-terminus assumed) | −/+

same assay, conditions: reference IGE134

Row | Compound | Structure Score
13 | CC(C)C[C@@H]1NC(=O)[C@H](CCC(=O)O)NC(=O)[C@H](Cc2ccc(O)cc2)NC(=O)[C@@H]2CSSC[C@H](NC(=O)[C@H](CC(C)C)NC(=O)[C@H](CCC(=O)O)NC(=O)[C@H](Cc3ccc(O)cc3)NC(=O)[C@H](CC(=O)O)NC1=O)C(=O)N1CCC[C@H]1C(=O)N[C@@H](CC(=O)O)C(=O)N[C@@H](C(C)C)C(=O)N[C@H](C(=O)N[C@@H](Cc1ccc(O)cc1)C(=O)N[C@H](C(=O)NCC(=O)N[C@@H](CCCNC(=N)N)C(=O)O)C(C)C)CSSC[C@H](NC(=O)[C@H](CCC(N)=O)NC(=O)[C@@H](N)C(C)C)C(=O)N1CCC[C@H]1C(=O)N[C@@H](Cc1c[nH]cn1)C(=O)N[C@@H](Cc1ccccc1)C(=O)N2 [IGE156] (H-VQCPHFCYELDYELCPDVCYVGR-OH; disulfide 3-19, 7-15 (inferred)) | +++
14 | CC(C)C[C@@H]1NC(=O)[C@H](C)NC(=O)[C@H](Cc2c[nH]cn2)NC(=O)CNC(=O)CNC(=O)[C@H](C(C)C)NC(=O)[C@H](Cc2ccc(O)cc2)NC(=O)[C@@H]2CSSC[C@H](NC1=O)C(=O)N1CCC[C@H]1C(=O)N[C@@H](CC(=O)O)C(=O)N[C@@H](C(C)C)C(=O)N[C@H](C(=O)N[C@@H](Cc1ccc(O)cc1)C(=O)N[C@H](C(=O)NCC(=O)N[C@@H](CCCNC(=N)N)C(=O)O)C(C)C)CSSC[C@H](NC(=O)[C@H](CCC(N)=O)NC(=O)[C@@H](N)C(C)C)C(=O)N1CCC[C@H]1C(=O)N[C@@H](Cc1c[nH]cn1)C(=O)N[C@@H](Cc1ccccc1)C(=O)N2 [IGE132] (H-VQCPHFCYVGGHALCPDVCYVGR-OH; disulfide 3-19, 7-15) | +++
